The target of test [1] is T1, MRCKβ (Homo sapiens (Human), UniProt Q9Y5S2). The test can be described thus: MRCKβ cellular assay (pMLC T18/S19 immunoblot, MDA-MB-231 cells with doxycycline inducible kinase domain). In kind it is cell-based. As for the experimental part:
(§1) MRCKβ, ROCK1 and ROCK2 Cellular Assays
(§2) MDA-MB-231 cells expressing doxycycline inducible ROCK1, ROCK2 or MRCKβ kinase domains were plated at 1.1×10^5 cells per well of a 12 well plate. After 24 hours, cells were treated with 1 μg/ml doxycycline for 18 hours to induce kinase domain expression and then tested over a suitable concentration range with compounds of the invention for 60 minutes. Cells were then washed with PBS and lysed with Tris-SDS lysis Buffer (50 mM Tris-HCl pH7.4, 0.5% (v/v) SDS, 1×PhosStop Inhibitors (04 906 837 001; Roche) and 1×Complete Protease Inhibitors (04 693 124 001; Roche)). Whole cell lysates were clarified by passing through QIAshredder spin columns, separated by SDS-PAGE, and quantitative immunoblotting performed using a LI-COR Odyssey IR scanner to determine pMLC (T18/S19) and α-Tubulin levels.
For orientation: In western blotting, separated proteins are transferred to a membrane and probed.

Test [2] has as its target T2, ROCK1 (Homo sapiens (Human), UniProt Q13464). The test is described as follows: biochemical.
Test [3] concerns the target ROCK2 (Homo sapiens (Human), UniProt O75116). The test is described as follows: ROCK2 kinase assay (IMAP fluorescence polarization). The format is biochemical.
Test [4] concerns the target MRCKα (Homo sapiens (Human), UniProt Q5VT25). The test is described as follows: MRCKα kinase assay (IMAP fluorescence polarization). In kind it is biochemical. From the text: (§3) MRCKα, MRCKβ, ROCK1 and ROCK2 Kinase Assays
Test [5] addresses T1, MRCKβ. The test can be described thus: MRCKβ kinase assay (IMAP fluorescence polarization). In kind it is biochemical.
Text: as §3
On the technique in general: Fluorescence polarisation rises when a labelled molecule tumbles more slowly, as on binding a larger partner.

Test [6] addresses T2, ROCK1. Particulars: read-out: ROCK1 Average Ki; 1 μM ATP.
In test [7] the target is T2, ROCK1. The test can be described thus: ROCK1 cellular assay (pMLC T18/S19 immunoblot, MDA-MB-231 cells with doxycycline inducible kinase domain). In kind it is cell-based. As for the experimental part:
as §1, §2

Setting [8] is: MDA-MB-231 cells, doxycycline inducible kinase domain, 60 minutes, pMLC (T18/S19), read-out: Cellular assay - MRCK-b inhibition MEAN.
Where [9] appears, read: 1 μM ATP, read-out: ROCK2 Average Ki.
Setting [10] is: 1 μM ATP, read-out: MRCK-a Average Ki.
Setting [11] is: 1 μM ATP, read-out: MRCK-B Average Ki.
Where [12] appears, read: MDA-MB-231 cells, doxycycline inducible kinase domain, 60 minutes, pMLC (T18/S19), read-out: Cellular assay - ROCK1 inhibition MEAN.

Like-named read-outs stand apart in the source and are kept apart here. Some results are limits rather than exact numbers.

Sequence of MRCKα (Q5VT25 whole entry): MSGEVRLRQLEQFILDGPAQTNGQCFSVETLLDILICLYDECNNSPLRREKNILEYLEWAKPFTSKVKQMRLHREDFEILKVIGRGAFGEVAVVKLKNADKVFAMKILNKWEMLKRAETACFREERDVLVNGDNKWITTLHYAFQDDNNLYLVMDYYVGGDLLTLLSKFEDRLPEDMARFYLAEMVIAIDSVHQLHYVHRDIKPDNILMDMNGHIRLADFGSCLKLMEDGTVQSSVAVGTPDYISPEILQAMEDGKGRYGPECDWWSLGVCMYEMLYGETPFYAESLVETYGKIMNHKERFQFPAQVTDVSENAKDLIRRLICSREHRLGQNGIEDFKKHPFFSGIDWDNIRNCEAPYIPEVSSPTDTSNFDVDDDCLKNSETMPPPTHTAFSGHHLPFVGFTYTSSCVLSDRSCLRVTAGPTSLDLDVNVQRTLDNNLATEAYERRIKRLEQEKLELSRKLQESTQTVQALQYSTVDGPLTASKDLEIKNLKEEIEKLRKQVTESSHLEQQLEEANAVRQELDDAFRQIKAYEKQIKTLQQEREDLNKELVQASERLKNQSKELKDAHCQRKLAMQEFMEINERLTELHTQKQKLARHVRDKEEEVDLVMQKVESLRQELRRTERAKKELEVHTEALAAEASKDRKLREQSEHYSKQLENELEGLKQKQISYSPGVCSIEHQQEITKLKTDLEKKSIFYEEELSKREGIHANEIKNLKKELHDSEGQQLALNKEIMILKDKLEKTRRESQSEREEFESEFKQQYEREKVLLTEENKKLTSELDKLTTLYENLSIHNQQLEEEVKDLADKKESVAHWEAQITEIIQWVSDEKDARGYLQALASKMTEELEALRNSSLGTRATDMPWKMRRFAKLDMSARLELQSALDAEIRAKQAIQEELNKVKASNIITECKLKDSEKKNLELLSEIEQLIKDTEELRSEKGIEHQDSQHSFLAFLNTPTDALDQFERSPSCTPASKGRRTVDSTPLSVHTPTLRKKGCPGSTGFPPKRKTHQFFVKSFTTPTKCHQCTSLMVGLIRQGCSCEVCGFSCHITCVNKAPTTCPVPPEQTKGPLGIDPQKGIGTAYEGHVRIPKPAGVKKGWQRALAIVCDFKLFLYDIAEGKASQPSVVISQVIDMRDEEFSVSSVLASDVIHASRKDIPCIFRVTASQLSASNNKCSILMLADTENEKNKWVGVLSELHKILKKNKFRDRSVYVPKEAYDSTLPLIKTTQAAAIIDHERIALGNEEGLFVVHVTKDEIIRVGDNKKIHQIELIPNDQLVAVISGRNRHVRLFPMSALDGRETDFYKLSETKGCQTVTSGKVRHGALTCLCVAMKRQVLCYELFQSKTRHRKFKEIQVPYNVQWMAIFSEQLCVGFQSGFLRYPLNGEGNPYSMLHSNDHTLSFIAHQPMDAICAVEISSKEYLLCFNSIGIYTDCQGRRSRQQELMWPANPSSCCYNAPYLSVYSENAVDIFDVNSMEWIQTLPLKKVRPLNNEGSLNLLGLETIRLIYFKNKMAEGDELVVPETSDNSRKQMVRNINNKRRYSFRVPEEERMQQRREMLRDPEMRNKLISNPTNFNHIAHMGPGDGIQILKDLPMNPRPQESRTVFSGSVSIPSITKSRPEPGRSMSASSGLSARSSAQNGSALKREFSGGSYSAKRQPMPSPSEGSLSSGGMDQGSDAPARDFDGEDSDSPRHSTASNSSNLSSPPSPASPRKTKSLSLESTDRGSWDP
T2 sequence (Q13464 2-1354 limits assumed): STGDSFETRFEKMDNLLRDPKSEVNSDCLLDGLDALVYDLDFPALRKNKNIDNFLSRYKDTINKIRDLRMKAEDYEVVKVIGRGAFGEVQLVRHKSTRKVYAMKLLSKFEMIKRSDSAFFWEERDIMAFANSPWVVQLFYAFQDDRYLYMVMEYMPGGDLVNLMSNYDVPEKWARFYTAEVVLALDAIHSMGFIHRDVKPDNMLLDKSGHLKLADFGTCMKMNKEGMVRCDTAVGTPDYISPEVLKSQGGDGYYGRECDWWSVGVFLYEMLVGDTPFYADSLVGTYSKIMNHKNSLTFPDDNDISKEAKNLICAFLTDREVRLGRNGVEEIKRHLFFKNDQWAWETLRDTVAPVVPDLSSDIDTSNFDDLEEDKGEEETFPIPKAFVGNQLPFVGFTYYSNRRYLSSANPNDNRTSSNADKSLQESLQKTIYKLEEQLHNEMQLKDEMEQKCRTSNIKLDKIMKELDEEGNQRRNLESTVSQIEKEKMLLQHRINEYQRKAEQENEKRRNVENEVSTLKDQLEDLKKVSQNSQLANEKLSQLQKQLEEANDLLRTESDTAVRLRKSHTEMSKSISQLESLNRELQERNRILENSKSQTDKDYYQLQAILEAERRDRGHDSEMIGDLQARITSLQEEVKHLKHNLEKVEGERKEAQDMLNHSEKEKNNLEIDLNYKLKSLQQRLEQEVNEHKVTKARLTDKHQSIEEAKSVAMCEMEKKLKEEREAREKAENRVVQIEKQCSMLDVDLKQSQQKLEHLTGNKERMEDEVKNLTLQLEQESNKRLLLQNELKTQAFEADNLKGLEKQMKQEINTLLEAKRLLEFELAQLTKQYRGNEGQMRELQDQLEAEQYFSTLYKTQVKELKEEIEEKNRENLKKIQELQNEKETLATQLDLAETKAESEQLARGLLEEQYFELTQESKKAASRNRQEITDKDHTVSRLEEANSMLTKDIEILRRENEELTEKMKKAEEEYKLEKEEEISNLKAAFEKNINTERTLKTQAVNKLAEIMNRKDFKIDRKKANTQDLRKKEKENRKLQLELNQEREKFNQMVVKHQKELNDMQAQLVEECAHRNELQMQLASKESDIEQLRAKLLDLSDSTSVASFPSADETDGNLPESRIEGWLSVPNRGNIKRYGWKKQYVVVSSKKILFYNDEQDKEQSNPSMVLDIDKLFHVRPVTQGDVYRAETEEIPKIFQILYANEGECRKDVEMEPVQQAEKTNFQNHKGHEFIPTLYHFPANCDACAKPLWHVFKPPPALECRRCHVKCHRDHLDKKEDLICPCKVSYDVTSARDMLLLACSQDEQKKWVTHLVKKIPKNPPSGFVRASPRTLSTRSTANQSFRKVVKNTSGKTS
Sequence of ROCK2 (O75116 whole entry): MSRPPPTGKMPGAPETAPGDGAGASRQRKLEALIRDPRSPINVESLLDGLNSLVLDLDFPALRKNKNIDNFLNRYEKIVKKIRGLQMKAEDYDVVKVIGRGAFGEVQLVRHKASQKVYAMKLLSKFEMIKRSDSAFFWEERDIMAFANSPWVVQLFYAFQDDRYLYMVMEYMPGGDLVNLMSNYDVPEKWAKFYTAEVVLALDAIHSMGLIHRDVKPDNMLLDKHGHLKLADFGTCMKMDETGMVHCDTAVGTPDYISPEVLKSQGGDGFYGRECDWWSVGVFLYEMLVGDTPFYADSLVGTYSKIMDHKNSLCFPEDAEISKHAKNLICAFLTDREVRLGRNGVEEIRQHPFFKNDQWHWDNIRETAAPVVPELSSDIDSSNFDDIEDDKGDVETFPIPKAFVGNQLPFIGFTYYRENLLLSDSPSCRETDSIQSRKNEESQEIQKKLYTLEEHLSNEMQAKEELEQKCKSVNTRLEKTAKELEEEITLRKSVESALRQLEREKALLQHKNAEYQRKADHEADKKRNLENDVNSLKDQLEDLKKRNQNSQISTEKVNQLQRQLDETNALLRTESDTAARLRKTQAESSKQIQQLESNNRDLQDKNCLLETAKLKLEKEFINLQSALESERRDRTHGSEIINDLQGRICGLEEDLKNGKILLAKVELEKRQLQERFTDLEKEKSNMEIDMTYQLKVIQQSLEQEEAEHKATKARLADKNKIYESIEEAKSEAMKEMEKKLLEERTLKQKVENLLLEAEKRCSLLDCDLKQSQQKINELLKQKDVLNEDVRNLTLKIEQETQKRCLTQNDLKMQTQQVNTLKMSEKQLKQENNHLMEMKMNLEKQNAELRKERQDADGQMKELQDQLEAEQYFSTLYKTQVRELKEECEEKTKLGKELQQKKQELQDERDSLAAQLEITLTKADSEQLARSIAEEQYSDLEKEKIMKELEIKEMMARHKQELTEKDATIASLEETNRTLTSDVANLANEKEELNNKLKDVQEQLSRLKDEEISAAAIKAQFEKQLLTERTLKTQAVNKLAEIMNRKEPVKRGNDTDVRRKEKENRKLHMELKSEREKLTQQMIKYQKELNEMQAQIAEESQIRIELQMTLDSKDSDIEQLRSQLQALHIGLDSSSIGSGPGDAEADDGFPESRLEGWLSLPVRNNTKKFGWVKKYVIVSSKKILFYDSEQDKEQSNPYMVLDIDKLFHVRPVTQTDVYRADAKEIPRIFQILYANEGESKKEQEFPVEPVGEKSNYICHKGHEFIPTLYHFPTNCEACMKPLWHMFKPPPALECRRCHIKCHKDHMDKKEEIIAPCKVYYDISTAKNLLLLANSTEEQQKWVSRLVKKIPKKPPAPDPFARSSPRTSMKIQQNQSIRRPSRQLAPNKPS

By Ki is commonly meant the equilibrium dissociation constant of an inhibitor or competing ligand from its target. On to `CN[C@H]1CCCN(c2ccnc3[nH]cc(-c4nccs4)c23)C1` [Example E47, (3S)-N-methyl-1-(3-thiazol-2-yl-1H-pyrrolo[2,3-b]pyridin-4-yl)piperidin-3-amine], for which the IC50 in test [1] (setting [8]) is 1530 nM. The Ki is 595 nM in test [2], 103 nM in test [3] (setting [9]), 0.158 nM in test [4] (setting [10]) and 0.304 nM in test [5] (setting [11]).

Take `c1csc(-c2c[nH]c3nccc(N4CC[C@@]5(CCCCN5)C4)c23)n1` [Example E133, 2-[4-[(5S)-2,6-diazaspiro[4.5]decan-2-yl]-1H-pyrrolo[2,3-b]pyridin-3-yl]thiazole]: the IC50 in test [1] came to 108 nM. For the same molecule, the Ki in test [2] worked out at 25.9 nM; in test [3], 6.41 nM; in test [4], 0.0149 nM; in test [5], 0.03 nM.

Consider `CC1(N)CCCN(c2ccnc3[nH]cc(-c4nccs4)c23)C1` (stereo not shown) [Example E176, 3-methyl-1-(3-thiazol-2-yl-1H-pyrrolo[2,3-b]pyridin-4-yl)piperidin-3-amine], for which the IC50 in test [1] (setting [8]) was found to be 255 nM. Further, the Ki in test [2] amounted to 67.1 nM; in test [3] (setting [9]) it was 42 nM; in test [4] (setting [10]), 0.0934 nM; in test [5] (setting [11]) it was 0.0923 nM.

With `c1cc(N2CCCC3(CCCCN3)C2)c2c(-c3cnsc3)c[nH]c2n1` (stereo not shown) [Example E114, 4-[4-(1,8-diazaspiro[5.5]undecan-8-yl)-1H-pyrrolo[2,3-b]pyridin-3-yl]isothiazole], the IC50 in test [1] (setting [8]) is 40.5 nM. In addition, the Ki in test [2] was 18.3 nM; in test [3] (setting [9]) it was 6.42 nM; in test [4] (setting [10]), 0.0683 nM; in test [5] (setting [11]), 0.0813 nM.

On to “3-ethyl-1-[3-(5-methylthiazol-2-yl)-1H-pyrrolo[2,3-b]pyridin-4-yl]piperidin-3-amine [Example E177]”, for which the results for the IC50 in test [1] (setting [8]) and in test [7] (setting [12]) were 274 nM and more than 30000 nM, respectively. The Ki was found to be 33.7 nM in test [6], 96.2 nM in test [3] (setting [9]), 0.0822 nM in test [4] (setting [10]) and 0.0888 nM in test [5] (setting [11]).

Turning to `CN1CCCC[C@@]12CCCN(c1ccnc3[nH]cc(-c4ccncn4)c13)C2` [Example E206, (6S)-1-methyl-8-(3-pyrimidin-4-yl-1H-pyrrolo[2,3-b]pyridin-4-yl)-1,8-diazaspiro[5.5]undecane], the IC50 was 138 nM in test [1] (setting [8]) and more than 30000 nM in test [7] (setting [12]). Moreover, the Ki in test [6] worked out at 20.6 nM; in test [3] (setting [9]) it was 4.19 nM; in test [4] (setting [10]) it was 0.0189 nM; in test [5] (setting [11]) it was 0.0277 nM.

As to `c1ccc(-c2c[nH]c3nccc(N4CCC[C@@]5(CCCCN5)C4)c23)nc1` [Example E139, (6S)-8-[3-(2-pyridyl)-1H-pyrrolo[2,3-b]pyridin-4-yl]-1,8-diazaspiro[5.5]undecane], the IC50 was 107 nM in test [1] (setting [8]) and more than 30000 nM in test [7] (setting [12]). In addition, the Ki in test [6] stood at 99.1 nM; in test [3] (setting [9]), 41 nM; in test [4] (setting [10]) it was 0.0435 nM; in test [5] (setting [11]) it was 0.0391 nM.

As to `Fc1cccnc1-c1c[nH]c2nccc(N3CCCC4(CCCCN4)C3)c12` (stereo not shown) [Example E169, 8-[3-(3-fluoro-2-pyridyl)-1H-pyrrolo[2,3-b]pyridin-4-yl]-1,8-diazaspiro[5.5]undecane], the IC50 in test [1] (setting [8]) came to 732 nM. Moreover, the Ki amounted to 861 nM in test [2], 261 nM in test [3] (setting [9]), 0.189 nM in test [4] (setting [10]) and 0.106 nM in test [5] (setting [11]).

Turning to `Fc1ccc(-c2c[nH]c3nccc(N4CCCC5(CCCCN5)C4)c23)nc1` (stereo not shown) [Example E170, 8-[3-(5-fluoro-2-pyridyl)-1H-pyrrolo[2,3-b]pyridin-4-yl]-1,8-diazaspiro[5.5]undecane], the IC50 in test [1] (setting [8]) came to 612 nM. Further, the Ki in test [2] was found to be 564 nM; in test [3] (setting [9]) it was 165 nM; in test [4] (setting [10]) it was 0.17 nM; in test [5] (setting [11]), 0.1 nM.

As for `c1cc(N2CCC3(CCCCN3)C2)c2c(-c3ncsn3)c[nH]c2n1` (stereo not shown) [Example E129, 3-[4-(2,6-diazaspiro[4.5]decan-2-yl)-1H-pyrrolo[2,3-b]pyridin-3-yl]-1,2,4-thiadiazole], the IC50 in test [1] amounted to 729 nM. The Ki in test [2] came out at 108 nM; in test [3], 23.6 nM; in test [4] it was 0.0518 nM; in test [5] it was 0.206 nM.

`c1cc(-c2c[nH]c3nccc(N4CC[C@@]5(CCCCN5)C4)c23)ncn1` [Example E128, (5S)-2-(3-pyrimidin-4-yl-1H-pyrrolo[2,3-b]pyridin-4-yl)-2,6-diazaspiro[4.5]decane]: the IC50 in test [1] (setting [8]) came out at 420 nM. The Ki turned out to be 10.6 nM in test [6], 4.41 nM in test [3] (setting [9]), 0.0317 nM in test [4] (setting [10]) and 0.0652 nM in test [5] (setting [11]).

Regarding `c1cc(-c2c[nH]c3nccc(N4CCC[C@H](NC5CC5)C4)c23)cnn1` [Example E46, (3S)-N-cyclopropyl-1-(3-pyridazin-4-yl-1H-pyrrolo[2,3-b]pyridin-4-yl)piperidin-3-amine], in test [1] (setting [8]), the IC50 amounted to 1540 nM. Moreover, the Ki was found to be 11.9 nM in test [2], 233 nM in test [3] (setting [9]), 0.322 nM in test [4] (setting [10]) and 0.238 nM in test [5] (setting [11]).

With `N#Cc1c[nH]c2nccc(N3CCC[C@@]4(CCCCN4)C3)c12` [Example E187, 4-[(6S)-1,8-diazaspiro[5.5]undecan-8-yl]-1H-pyrrolo[2,3-b]pyridine-3-carbonitrile], the results for the IC50 in test [1] and in test [7] were 782 nM and more than 30000 nM, respectively. For the same molecule, the Ki was found to be 152 nM in test [6], 44.2 nM in test [3] (setting [9]), 0.249 nM in test [4] (setting [10]) and 0.179 nM in test [5] (setting [11]).

`Fc1cncc(-c2c[nH]c3nccc(N4CCCC5(CCCCN5)C4)c23)c1` (stereo not shown) [Example E171, 8-[3-(5-fluoro-3-pyridyl)-1H-pyrrolo[2,3-b]pyridin-4-yl]-1,8-diazaspiro[5.5]undecane]: the IC50 in test [1] (setting [8]) worked out at 233 nM. For the same molecule, the Ki in test [2] came out at 207 nM; in test [3] (setting [9]), 85.2 nM; in test [4] (setting [10]), 0.0639 nM; in test [5] (setting [11]), 0.0648 nM.

For the molecule `CC1(N)CCCN(c2ccnc3[nH]cc(-c4cncnc4)c23)C1` (stereo not shown) [Example E178, 3-methyl-1-(3-pyrimidin-5-yl-1H-pyrrolo[2,3-b]pyridin-4-yl)piperidin-3-amine], the IC50 in test [1] (setting [8]) was found to be 622 nM. In addition, the inhibition constant Ki in test [6] was 423 nM; in test [3] (setting [9]) it was 119 nM; in test [4] (setting [10]) it was 0.517 nM; in test [5] (setting [11]), 0.181 nM.

As for `c1csc(-c2c[nH]c3nccc(N4CCC5(CCCCN5)C4)c23)n1` (stereo not shown) [Example E155, 2-[4-(2,6-diazaspiro[4.5]decan-2-yl)-1H-pyrrolo[2,3-b]pyridin-3-yl]thiazole], the IC50 in test [1] was 218 nM. Further, the Ki in test [2] turned out to be 79.5 nM; in test [5] it was 0.0822 nM.

As to `c1cc(-c2c[nH]c3nccc(N4CCCC5(CCCCN5)C4)c23)ncn1` (stereo not shown) [Example E168, 8-(3-pyrimidin-4-yl-1H-pyrrolo[2,3-b]pyridin-4-yl)-1,8-diazaspiro[5.5]undecane], in test [1] (setting [8]), the IC50 is less than 30 nM. Besides, the Ki in test [6] came out at 89 nM; in test [3] (setting [9]) it was 30.9 nM; in test [5] (setting [11]), 0.065 nM.

With `CN[C@H]1CCCN(c2ccnc3[nH]cc(-c4ccncn4)c23)C1` [Example E66, (3S)-N-methyl-1-(3-pyrimidin-4-yl-1H-pyrrolo[2,3-b]pyridin-4-yl)piperidin-3-amine], in test [1] (setting [8]), the IC50 was determined as 1780 nM. Further, the Ki is 241 nM in test [2], 99.2 nM in test [3] (setting [9]), 0.238 nM in test [4] (setting [10]) and 0.17 nM in test [5] (setting [11]).

These data come from US11447505B1, “Pyrrolo[2,3-b]pyridine compounds and their use in the treatment of cancer” (priority 2017, dated 2022).
